From patent US11065211B2, “Isoxylitones mediated neurogenesis” (priority 2018, dated 2021)

How the values were obtained:
Type in all cases: cell-based, rat
tubulin = test: Immunocytochemical analysis of primary cultured and cocultured cells
Experimental: (§1) Immuncytochemical analysis was performed for differentiation studies of primary cultures of cortex, hippocampus, and co-cultures (CoCul) in absence of growth factors and serum free medium.
(§2) The cultured cells of cortex, hippocampus, and co-cultured cells in the presence of serum free medium were plated in chamber slides at the density of 20,000 cells/mL and treated with a proliferative dose of isoxylitones, i.e., 150 μg/ml for 24 hrs at 37° C. and 5% CO2 to let the cells adhere on the bottom surface of the slide. Following incubation, the media was refreshed and the cells were immunolabelled as mentioned in table #2.1.
(§3) For immunostaining, the media was removed; cells were washed gently with 1 mL of 1×PBS. After removing 1×PBS, 4% formaldehyde was added and the slides were incubated for 20 minutes at room temperature to fix the cells. The fixative was aspirated followed by a three times rinse with 1 mL of 1×PBS. After washing, the blocking buffer (BSA having 3% normal goat serum, 0.2% tween-20 and 0.3% of Triton X-100 in 10×PBS) was added and the slides were kept at room temperature for an hour. Then, the cells were washed gently three times with 1×PBS on an orbital shaker and 300 μL of primary antibodies (dilution mentioned in table #2.1) were added to each slide and incubated overnight at 4° C. Following incubation, the cells were washed gently in PBS three times (5 minutes each wash) on an orbital shaker. Next secondary antibody (Table #2.1) in 3% normal serum or BSA was added to their respective chamber and incubated for 1 hour at room temperature in dark. Following incubation, the slides were washed with 1×PBS.
(§4) Diluted Dapi (1:1000) was added into each slide to counter stain the nucleus. After rinsing twice with distilled water, images were captured using the Nikon 90i with fluorescence microscopes (Nikon. Tokyo, Japan) equipped with Nuance Software version 3.1 (Caliper Life Sciences. Hopkinton, Mass.). The magnification used was 20×.
(§5) For quantification studies, ImageJ software (National Institutes of Health, USA) was used to digitalized the images. This software provides multiple imaging system data comparisons taking densitometry in consideration. Briefly, 5 different regions were randomly selected and the fluorescence intensity was quantified in cells and the background intensity of each image was subtracted from it, the residual particles were measured to represent expression of relevant protein. Cells or fields were counted and percentage intensity of protein expression was measured and means percentage intensity was calculated. Data from three individual experiments was obtained and expressed as means±SEM.

neurogenin = test: as above
Experimental: as §1, §2, §3, §4, §5

GFAP = test: as above; settings: 24 h
Experimental: as §1, §2, §3, §4, §5

Calretinin (CR) = test: as above; settings: vs control
Experimental: as §1, §2, §3, §4, §5

nestin = test: as above; settings: 24 h
Experimental: as §1, §2, §3, §4, §5

Neuro D1 = test: as above
Experimental: as §1, §2, §3, §4, §5

cortical cells = test: AlamarBlue proliferation assay; settings: 24 h treatment, vs control, FIG. 3
From the text: (§6) AlamarBlue (AB), a water-soluble dye having resazurin salt was used to evaluate the effect of isoxylitones on the proliferation of the cultured cells. AB measures mitochondrial reductase activity of live cells. The resazurin has ability to enter the cytosol of viable cell and converted to the reduced fluorescent form resorufin by mitochondrial enzyme activity by accepting electrons from NADPH, FADH, FMNH, NADH as well as from the cytochromes. The redox reaction is accompanied by a change in color of the culture medium from blue to fluorescent red (Al-Nasiry, Geusens, Hanssens, Luyten, Pijnenborg, 2007). The amount of fluorescence produced is proportional to the number of living cells (Al-Nasiry, Geusens, Hanssens, Luyten, Pijnenborg, 2007). The cultured hippocampal, cortical and co-cultures were plated in 96-well plates (10,000 cells/well) and incubated for 24 hrs at 37° C. and 5% CO2. […] After incubation, the fluorescence intensity in each well was recorded at an excitation wavelength of 570 nm and an emission wavelength of 600 nm. The rate of cell proliferation was expressed as the relative fluorescence intensity. […] The blank media fluorescence measurement was subtracted from fluorescence measurements of cells from the same run.
(§7) Formula used to calculate the percentage reduction of AB using absorbance readings: […]

hippocampal cells = test: AlamarBlue proliferation assay; settings: 24 h treatment, vs control, FIG. 3
From the text: as §6, §7

## CC(=O)C=C1C=C(C)CC(C)(C)C1 (mixture of isomers) [isoxylitones]
tubulin; (A) cortical and (B) CoCul-CTX cells, P<0.01, FIG. 12
  tubulin expression (immunofluorescence): significant upregulation of tubulin
tubulin; (A) hippocampal and (B) CoCul-HP cells, 150 μg/ml, 24 h, vs control, FIG. 13
  tubulin expression (immunofluorescence): significant upregulation
neurogenin; (A) cortical and (B) CoCul-CTX cells, FIG. 18
  neurogenin expression (immunostaining): prominent neurogenin expression
neurogenin; (A) hippocampal and (B) CoCul-HP cells, 24 h, vs control P<0.001, FIG. 19
  neurogenin expression (immunostaining): elevated neurogenin expression
GFAP; (A) cortical and (B) CoCul-CTX cells, vs vehicle control, FIG. 10
  GFAP expression (immunofluorescence): prominent increase of GFAP expression
GFAP; (A) hippocampal and (B) CoCul-HP cells, 150 μg/ml, vs control, FIG. 11
  GFAP immunochemistry, intensity of images: No significant difference in intensity
Calretinin (CR); (A) cortical and (B) CoCul-CTX cells, FIG. 14
  Calretinin (CR) fluorescent intensity: prominent increase in the fluorescent intensity of calretinin
Calretinin (CR); (A) hippocampal and (B) CoCul-HP cells, FIG. 15
  CR expression (immunoreactivity): significant increase in CR expression
nestin; (A) CTX and (B) CoCul-CTX cells, vs control, FIG. 9
  nestin expression (immunofluorescence): no significant difference
nestin; (A) hippocampal and (B) CoCul-HP cells, 150 μg/ml, vs untreated control, FIG. 8
  nestin expression (immunofluorescence): up-regulation of nestin protein expression
Neuro D1; (A) cortical and (B) CoCul-CTX cells, 150 μg/ml, 24 h, vs control, FIG. 16
  Neuro D1 protein expression: significant upregulation
Neuro D1; (A) hippocampal and (B) CoCul-HP cells, FIG. 17
  Neuro D1 immunofluorescence intensity: significant up-regulation in immunofluorescence of NeuroD1 intensity
Cortical cells
  proliferation (Alamar blue): growth supportive and proliferative effect
Hippocampal cells
  proliferation (Alamar blue): growth supportive and proliferative effect
